The source of these data is patent publication US4877876A, “Novel indenothiazole derivative and process for preparing the same” (Hisamitsu Pharmaceutical Co., Inc., priority 1986, dated 1989).

Each structure is given as a SMILES string. Where a name gives a salt, the structure may show the parent alone.

The test system of the assay is Wistar-strained male rats. As to the kind of experiment: Pharmacological test: ulcer inhibition against ethanol-induced ulcer in rats. In kind it is in vivo. The settings on record: test compounds 50 mg/kg orally, one hour before 1 ml pure ethanol orally; compared with 0.5% tragacanth control. On the procedure:
Groups each consisting of 9 to 10 Wistar-strained male rats, each weighing about 200 g, were used in the test after their abstinence from food and water for 24 hours. Each test compound of this invention was administered in an amount of 50 mg/kg and a comparative medicine, "Neuer" (tradename: produced by Daiichi Pharmaceutical Co., Ltd.; effective component: centraxate) in an amount of 300 mg/kg. Each of the test compounds was administered orally to each rat of a first group and the comparative medicine to each rat of a second group one hour before oral administration of 1 ml of pure ethanol per rat. One hour later, each rat was sacrificed by exsanguination and its stomach was enucleated and fixed with 10 ml of 70% ethanol for about 30 minutes. A 0.5% tragacanth solution was administered to each rat of a third group. The ulcer was measured for length with naked eyes, and the test groups of rats were measured for their respective ulcer inhibition ratios in comparison with that for the third group.
Both the test compounds and the comparative medicine were each suspended or dissolved in a 0.5% tragacanth gum saline solution for use in the test. […] [formula]
Consider `Clc1ccc2c(c1)-c1nc(NCCN3CCOCC3)sc1C2` [Example 59], for which the Ulcer inhibition ratio turned out to be 85.0%.

For the compound `c1ccc2c(c1)Cc1sc(NCCCCN3CCOCC3)nc1-2` [Example 92], the Ulcer inhibition ratio amounted to 83.4%.

Consider `Fc1ccc2c(c1)Cc1sc(NCCCN3CCOCC3)nc1-2` [Example 1 (dihydrochloride), 2-(3-morpholinopropyl)amino-6-fluoro-8H-indeno[1.2-d]thiazole], for which the Ulcer inhibition ratio was determined as 94.1%.

On to `Fc1ccc2c(c1)CC1SC(=NCCCN3CCOCC3)N=C21` (stereo not drawn) [Example 2], for which the Ulcer inhibition ratio amounted to 93.5%.

In the case of `Fc1ccc2c(c1)Cc1sc(NCCCN3CCOCC3)nc1-2` [Example 1 (maleic acid salt), 2-(3-morpholinopropyl)amino-6-fluoro-8H-indeno[1.2-d]thiazole], the Ulcer inhibition ratio is listed as 89.5%.

With `c1ccc2c(c1)Cc1sc(NCCCN3CCOCC3)nc1-2` [Example 61], the Ulcer inhibition ratio is 90.0%.

As to `CC1c2sc(NCCCN3CCOCC3)nc2-c2cccc(Cl)c21` (stereo not drawn) [Example 83 (dihydrochloride)], the Ulcer inhibition ratio came to 85.9%.

As to `CC(C)CNc1nc2c(s1)Cc1ccccc1-2` [Example 7], the Ulcer inhibition ratio came to 79.0%.

Regarding `Fc1ccc2c(c1)Cc1sc(NCCCN3CCOCC3)nc1-2` [Example 1, 2-(3-morpholinopropyl)amino-6-fluoro-8H-indeno[1.2-d]thiazole], the Ulcer inhibition ratio worked out at 89.0%.
